Test results: PMC4638191, “Multicomponent reaction-based synthesis and biological evaluation of tricyclic heterofused quinolines with multi-trypanosomatid activity” (European Journal of Medicinal Chemistry, 2015)
Like-named read-outs stand apart in the source and are kept apart here.

Columns and labels:
[1] = molecular target: Electrophorus electricus AChE (EeAChE) (Electrophorus electricus, UniProt O42275); test: biochemical; format: biochemical; details: mean ± SEM
in vitro = details: rat, rat skeletal muscle L6 cells
Experimental: (§1) Cytotoxicity against mammalian cells was assessed using microtitre plates following a described procedure [58]. Briefly, rat skeletal muscle L6 cells were seeded at 1 × 10^4 mL^−1 in 200 μL of growth medium containing different compound concentrations. The plates were incubated for 6 days at 37 °C and 20 μL resazurin was then added to each well. After a further 8 h incubation, the fluorescence was determined using a Spectramax plate reader.

[2] = test system: T. cruzi strain MHOM/ES/2203/BCN590 (Tcl) epimastigote forms; test: Activity against epimastigotes of T. cruzi (cell counting); details: mean ± SD of duplicate experiments performed at least twice
[3] = for Pe: PAMPA-BBB, PBS:EtOH 70:30, mean ± SD of three independent experiments; for Pe (prediction) of BBB permeation: class from PAMPA-BBB Pe
Experimental: Thus, the brain passive permeability of the novel compounds was evaluated in vitro through the widely used PAMPA-BBB method [[50]

[4] = test system: L. infantum strain MCAN/ES/92/BCN722 promastigote forms; test: Activity against promastigotes of L. infantum (acid phosphatase); format: cell-based, Leishmania infantum; details: promastigote form, mean ± SD of duplicate experiments performed at least twice
[5] = test system: bloodstream form T. brucei (strain 221); test: Trypanocidal activity against cultured bloodstream form T. brucei (resazurin); details: for IC50: mean of triplicate ± SEM; for IC90: pH 7.4, read-out: T. brucei IC90
Experimental: T. brucei in the logarithmic phase of growth were diluted back to 2.5 × 10^4 mL^−1 and aliquoted into 96-well plates. The compounds were then added at a range of concentrations and the plates incubated at 37 °C. Each drug concentration was tested in triplicate. Resazurin was added after 48 h and the plates incubated for a further 16 h and the plates then read in a Spectramax plate reader. Results were analysed using GraphPad Prism.

[6] = test system: rat skeletal myoblast L6 cells; test: cells; details: L6, read-out: L6 cells IC50
Experimental: as §1

[7] = SILi: selectivity index as the ratio of cytotoxic to anti-L. infantum IC50 values, L6 IC50 / L. infantum IC50
[8] = SITb: selectivity index as the ratio of cytotoxic to anti-T. brucei IC50 values, L6 IC50 / T. brucei IC50
[9] = SITc: selectivity index as the ratio of cytotoxic to anti-T. cruzi IC50 values, L6 IC50 / T. cruzi IC50
[10] = Trypanosoma cruzi, read-out: T. cruzi IC50, epimastigote form
[11] = read-out: T. cruzi IC50, epimastigote form
[12] = Trypanosoma brucei, pH 7.4, read-out: T. brucei IC50, bloodstream form, pH 7.4
[13] = read-out: T. brucei IC50, bloodstream form, pH 7.4

Electrophorus electricus AChE (EeAChE), sequence (O42275 24-633): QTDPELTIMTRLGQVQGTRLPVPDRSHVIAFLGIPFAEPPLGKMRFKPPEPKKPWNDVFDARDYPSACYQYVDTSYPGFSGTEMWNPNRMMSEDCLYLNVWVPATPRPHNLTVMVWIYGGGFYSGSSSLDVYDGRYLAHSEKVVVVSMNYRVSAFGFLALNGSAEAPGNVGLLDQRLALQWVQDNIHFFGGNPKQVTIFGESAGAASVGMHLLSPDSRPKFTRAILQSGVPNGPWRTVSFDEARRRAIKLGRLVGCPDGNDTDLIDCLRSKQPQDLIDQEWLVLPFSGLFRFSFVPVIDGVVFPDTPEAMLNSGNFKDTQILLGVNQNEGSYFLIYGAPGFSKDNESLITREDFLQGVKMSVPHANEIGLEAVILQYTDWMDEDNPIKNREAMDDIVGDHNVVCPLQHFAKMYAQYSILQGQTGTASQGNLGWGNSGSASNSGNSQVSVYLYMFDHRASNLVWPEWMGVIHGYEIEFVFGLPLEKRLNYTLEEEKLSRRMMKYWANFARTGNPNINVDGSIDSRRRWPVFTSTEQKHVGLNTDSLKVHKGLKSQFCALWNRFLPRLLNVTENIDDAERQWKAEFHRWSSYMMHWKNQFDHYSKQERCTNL

NCc1ccc(-c2nc3ccc(Cl)cc3c3c2CCCN3Cc2ccccc2)cc1 [Compound 3, 4-{1-Benzyl-9-chloro-1,2,3,4-tetrahydrobenzo[h][1,6]naphthyridin-5-yl}benzylamine]
IC50 [1]: 3.67 ± 0.55 µM | selectivity ratio at 6 days (in vitro; [7]): 0.2 | selectivity ratio at 6 days (in vitro; [8]): 6.8 | selectivity ratio at 6 days (in vitro; [9]): 0.7 | IC50 [2, 10]: 9.47 µM | IC50 [2, 11]: 9.5 ± 2.5 µM | Pe [3]: 7.4 ± 0.2 10^−6 cm s^−1 | Pe (prediction) of BBB permeation [3]: CNS+ (compounds of high BBB permeation (CNS+): Pe (10^−6 cm s^−1) > 5.25) | IC50 ([4]; Leishmania infantum): ~30 µM | IC50 [4]: 31.1 ± 2.9 µM | IC50 [5, 12]: 1 ± 0.03 µM | IC90 ([5]; Trypanosoma brucei): 1.19 ± 0.02 µM | IC50 [6]: 6.78 ± 1.26 µM

N#Cc1ccc(-c2nc3ccc(Cl)cc3c3c2CCN3)cc1 [Compound 26, 4-{8-Chloro-2,3-dihydro-1H-pyrrolo[3,2-c]quinolin-4-yl}benzonitrile]
IC50 [1]: 1.19 ± 0.15 µM | IC50 [2, 10]: > 150 µM | Pe [3]: 6.8 ± 0.3 10^−6 cm s^−1 | Pe (prediction) of BBB permeation [3]: CNS+ (compounds of high BBB permeation (CNS+): Pe (10^−6 cm s^−1) > 5.25) | IC50 ([4]; Leishmania infantum): > 200 µM | IC50 [5, 12]: > 30 µM | IC90 ([5]; Trypanosoma brucei): > 30 µM

N#Cc1ccc(-c2nc3ccc(Cl)cc3c3c2CCCN3)cc1 [Compound 27, 4-{9-Chloro-1,2,3,4-tetrahydrobenzo[h][1,6]naphthyridin-5-yl}benzonitrile]
IC50 [1]: 1.13 ± 0.17 µM | selectivity ratio at 6 days (in vitro; [7]): 2.5 | selectivity ratio at 6 days (in vitro; [8]): 6.4 | selectivity ratio at 6 days (in vitro; [9]): 0.3 | IC50 [2, 10]: 147 ± 19 µM | Pe [3]: 14.3 ± 0.1 10^−6 cm s^−1 | Pe (prediction) of BBB permeation [3]: CNS+ (compounds of high BBB permeation (CNS+): Pe (10^−6 cm s^−1) > 5.25) | IC50 ([4]; Leishmania infantum): 15.3 ± 3.6 µM | IC50 [5, 12]: 6.07 ± 0.54 µM | IC90 ([5]; Trypanosoma brucei): 10.5 ± 0.2 µM | IC50 [6]: 38.8 ± 1.7 µM

N#Cc1ccc(-c2nc3ccc(Cl)cc3c3c2CCCCN3)cc1 [Compound 28, 4-{10-Chloro-2,3,4,5-tetrahydro-1H-azepino[3,2-c]quinolin-6-yl}benzonitrile]
IC50 [1]: 2.2 ± 0.3 µM | IC50 [2, 10]: 64.6 ± 12.5 µM | Pe [3]: 20.0 ± 1.1 10^−6 cm s^−1 | Pe (prediction) of BBB permeation [3]: CNS+ (compounds of high BBB permeation (CNS+): Pe (10^−6 cm s^−1) > 5.25) | IC50 ([4]; Leishmania infantum): 13.7 ± 2.2 µM | IC50 [5, 12]: 17.3 ± 2.1 µM | IC90 ([5]; Trypanosoma brucei): 28.6 ± 6.7 µM

N#Cc1ccc(-c2nc3cc(Cl)ccc3c3c2CCCN3)cc1 [Compound 29, 4-{8-Chloro-1,2,3,4-tetrahydrobenzo[h][1,6]naphthyridin-5-yl}benzonitrile]
IC50 [1]: 3.27 ± 0.43 µM | IC50 [2, 10]: 39.4 ± 0.2 µM | Pe [3]: 16.2 ± 0.1 10^−6 cm s^−1 | Pe (prediction) of BBB permeation [3]: CNS+ (compounds of high BBB permeation (CNS+): Pe (10^−6 cm s^−1) > 5.25) | IC50 ([4]; Leishmania infantum): 19 ± 3 µM | IC50 [5, 12]: > 30 µM | IC90 ([5]; Trypanosoma brucei): > 30 µM

NCc1ccc(-c2nc3ccc(Cl)cc3c3c2CCN3)cc1 [Compound 30, 4-{8-Chloro-2,3-dihydro-1H-pyrrolo[3,2-c]quinolin-4-yl}benzylamine]
IC50 [1]: 0.87 ± 0.08 µM | selectivity ratio at 6 days (in vitro; [7]): 0.4 | selectivity ratio at 6 days (in vitro; [8]): 2.8 | selectivity ratio at 6 days (in vitro; [9]): 0.1 | IC50 [2, 10]: ~30 µM | IC50 [2, 11]: 37.3 ± 11 µM | Pe [3]: 7.4 ± 2.6 10^−6 cm s^−1 | Pe (prediction) of BBB permeation [3]: CNS+ (compounds of high BBB permeation (CNS+): Pe (10^−6 cm s^−1) > 5.25) | IC50 ([4]; Leishmania infantum): 6.5 ± 1.4 µM | IC50 [5, 12]: 0.92 ± 0.05 µM | IC90 ([5]; Trypanosoma brucei): 1.57 ± 0.03 µM | IC50 [6]: 2.54 ± 0.92 µM

NCc1ccc(-c2nc3ccc(Cl)cc3c3c2CCCN3)cc1 [Compound 31, 4-{9-Chloro-1,2,3,4-tetrahydrobenzo[h][1,6]naphthyridin-5-yl}benzylamine]
IC50 [1]: 0.97 ± 0.02 µM | selectivity ratio at 6 days (in vitro; [7]): 0.8 | selectivity ratio at 6 days (in vitro; [8]): 3.7 | selectivity ratio at 6 days (in vitro; [9]): 0.2 | IC50 [2, 10]: 50.5 ± 14.3 µM | Pe [3]: 4.6 ± 0.2 10^−6 cm s^−1 | IC50 ([4]; Leishmania infantum): 11.6 ± 2.5 µM | IC50 [5, 12]: 2.44 ± 0.13 µM | IC90 ([5]; Trypanosoma brucei): 3.48 ± 0.05 µM | IC50 [6]: 8.92 ± 0.25 µM

N#Cc1ccc(-c2nc3cc(Cl)ccc3cc2CCCN)cc1 [Compound 35, 4-[3-(3-Aminopropyl)-7-chloroquinolin-2-yl]benzonitrile]
selectivity ratio at 6 days (in vitro; [7]): 1.3 | selectivity ratio at 6 days (in vitro; [8]): 4.9 | selectivity ratio at 6 days (in vitro; [9]): 0.3 | IC50 [2, 10]: 78.8 ± 1.7 µM | Pe [3]: 18.3 ± 0.6 10^−6 cm s^−1 | Pe (prediction) of BBB permeation [3]: CNS+ (compounds of high BBB permeation (CNS+): Pe (10^−6 cm s^−1) > 5.25) | IC50 ([4]; Leishmania infantum): ~15 µM | IC50 [4]: 16.2 ± 4 µM | IC50 [5, 12]: ~5 µM | IC90 ([5]; Trypanosoma brucei): 5.61 ± 0.05 µM | IC50 [5, 13]: 4.16 ± 0.07 µM | IC50 [6]: 20.4 ± 0.4 µM

N#Cc1ccc([C@H]2Nc3ccc(Cl)cc3[C@@H]3OCCC[C@H]23)cc1 [Compound 37]
IC50 [2, 10]: 676 ± 37 µM | Pe [3]: 7.0 ± 0.7 10^−6 cm s^−1 | Pe (prediction) of BBB permeation [3]: CNS+ (compounds of high BBB permeation (CNS+): Pe (10^−6 cm s^−1) > 5.25) | IC50 ([4]; Leishmania infantum): > 200 µM | IC50 [5, 12]: > 30 µM | IC90 ([5]; Trypanosoma brucei): > 30 µM

Clc1ccc2nc(-c3ccco3)c3c(c2c1)OCCC3 [Compound 42, 9-Chloro-5-(2-furyl)-3,4-dihydro-2H-pyrano[3,2-c]quinoline]
IC50 [1]: 16.3 ± 1.5 µM | IC50 [2, 10]: 76.1 ± 7.8 µM | Pe [3]: 3.5 ± 0.4 10^−6 cm s^−1 | IC50 ([4]; Leishmania infantum): 38.4 ± 21.6 µM | IC50 [5, 12]: 21.7 ± 1.2 µM | IC90 ([5]; Trypanosoma brucei): 29.3 ± 0.5 µM

Clc1ccc2nc(-c3cccs3)c3c(c2c1)OCCC3 [Compound 43, 9-Chloro-3,4-dihydro-5-(2-thienyl)-2H-pyrano[3,2-c]quinoline]
IC50 [1]: 9.39 ± 0.82 µM | IC50 [2, 10]: > 250 µM | Pe [3]: 14.4 ± 1.6 10^−6 cm s^−1 | Pe (prediction) of BBB permeation [3]: CNS+ (compounds of high BBB permeation (CNS+): Pe (10^−6 cm s^−1) > 5.25) | IC50 ([4]; Leishmania infantum): 51.4 ± 2.3 µM | IC50 [5, 12]: 18 ± 0.4 µM | IC90 ([5]; Trypanosoma brucei): 27.6 ± 1.1 µM

OCCCc1cc2cc(Cl)ccc2nc1-c1ccco1 [Compound 44, 3-[6-chloro-2-(2-furyl)quinolin-3-yl]-1-propanol]
IC50 [2, 10]: 29.3 ± 12 µM | Pe [3]: 10.3 ± 1.5 10^−6 cm s^−1 | Pe (prediction) of BBB permeation [3]: CNS+ (compounds of high BBB permeation (CNS+): Pe (10^−6 cm s^−1) > 5.25) | IC50 ([4]; Leishmania infantum): 19.3 ± 11.3 µM | IC50 [5, 12]: > 25 µM | IC90 ([5]; Trypanosoma brucei): 70.6 ± 1.5 µM | IC50 [5, 13]: 35.7 ± 1.8 µM

OCCCc1cc2cc(Cl)ccc2nc1-c1cccs1 [Compound 45, 3-[6-chloro-2-(2-thienyl)quinolin-3-yl]-1-propanol]
IC50 [2, 10]: 51.7 ± 19.4 µM | Pe [3]: 28.4 ± 1.2 10^−6 cm s^−1 | Pe (prediction) of BBB permeation [3]: CNS+ (compounds of high BBB permeation (CNS+): Pe (10^−6 cm s^−1) > 5.25) | IC50 ([4]; Leishmania infantum): 37.3 ± 2.3 µM | IC50 [5, 12]: > 25 µM | IC90 ([5]; Trypanosoma brucei): 42.9 ± 1.5 µM | IC50 [5, 13]: 28 ± 0.7 µM

N#CCCc1cc2cc(Cl)ccc2nc1-c1cccs1 [Compound 47, 3-[6-Chloro-2-(2-thienyl)quinolin-3-yl]propanenitrile]
IC50 [2, 10]: 51.7 ± 5.1 µM | Pe [3]: 17.9 ± 1.1 10^−6 cm s^−1 | Pe (prediction) of BBB permeation [3]: CNS+ (compounds of high BBB permeation (CNS+): Pe (10^−6 cm s^−1) > 5.25) | IC50 ([4]; Leishmania infantum): 23.3 ± 5.9 µM | IC50 [5, 12]: > 25 µM | IC90 ([5]; Trypanosoma brucei): > 30 µM | IC50 [5, 13]: > 30 µM

CCN(CC)CCCc1cc2cc(Cl)ccc2nc1-c1cccs1 [Compound 50, N-{3-[6-Chloro-2-(2-thienyl)quinolin-3-yl]propyl}-N,N-diethylamine]
selectivity ratio at 6 days (in vitro; [7]): 1.1 | selectivity ratio at 6 days (in vitro; [8]): 2.3 | selectivity ratio at 6 days (in vitro; [9]): 0.2 | IC50 [2, 10]: 77.6 ± 11.2 µM | Pe [3]: 20.9 ± 0.5 10^−6 cm s^−1 | Pe (prediction) of BBB permeation [3]: CNS+ (compounds of high BBB permeation (CNS+): Pe (10^−6 cm s^−1) > 5.25) | IC50 ([4]; Leishmania infantum): ~15 µM | IC50 [4]: 13.6 ± 1.5 µM | IC50 [5, 12]: ~5 µM | IC90 ([5]; Trypanosoma brucei): 12.6 ± 0.9 µM | IC50 [5, 13]: 6.33 ± 0.94 µM | IC50 [6]: 14.7 ± 2.3 µM
